# Source: patent publication US4740233A, “Substituted 1,2,4-triazolo[1,5-a]-pyrimidine-2-sulfonamides and compositions and methods of controlling undesired vegetation and suppressing the nitrification of ammonium nitrogen in soil” (The Dow Chemical Company, priority 1986, dated 1988)
# Key:
# [1] = system: annual sugar beet variety (SLC03); test: Plant growth regulator activity, postemergence; assay type: in vivo; settings: for minimal effective concentration: Beta vulgaris, post-emergence, 672 h, 4 weeks after spraying, read-out: Bolting Inhibition (postemergence), concentration with observed effect
# Source text: (§1) Using a regular biennial variety, even a bolting-susceptible variety would require a cold treatment of around 10-16 weeks plus a hormone treatement in conjunction with specific light intensities. Thus, for a screening organism, we selected one which would consistently produce bolting on a regular schedule. The screen is run with an annual sugar beet variety (SLC03) provided by Dr. Richard J. Hecker, Fort Collins, Colo. This variety is an inbred which bolts in the 6- to 8-leaf stage without any need for vernalization. This allows the screen to be run entirely in the greenhouse with all 110 chemical compounds tested on one tray. The sugarbeets are grown in 3×3 inch square pots in a greenhouse sandy loam potting mix. The sugarbeets are sprayed with test compounds when they are 2 to 3 weeks old (2 true leaves). The compounds are dissolved in acetone and diluted with water containing Tween 20 as a wetting agent. The concentration of acetone in the final spray is 20% and the concentration of Tween 20 is 0.05 percent. The plants are examined for the appearance of a bolt 4 weeks after spraying.
# [2] = system: annual sugar beet variety (SLC03); test: Plant growth regulator activity, preemergence; assay type: in vivo; settings: Beta vulgaris, pre-emergence; 6-7 weeks; read-out: Bolting Inhibition (preemergence), concentration with observed effect
# Source text: as §1
# Preemergence tests are conducted by spraying formulated chemical on seeds placed on potting soil. The sprayed seeds are then covered with 1/4 inch of potting soil and the pots are watered. Bolting is evaluated 6-7 weeks after the initiation of the test. At this time untreated plants have a vigorous bolting stem with visible flowers.
# [3] = system: cotton; test: Postemergent control of plant species; assay type: in vivo, Gossypium spp.; settings: Gossypium hirsutum, post-emergence, 336 h, read-out: percent postemergent control
# In short: (§2)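 Spray emulsion: acetone stock at twice final concentration plus equal volume water with 0.1% wetting agent, applied to separated greenhouse beds at 2-4 leaf stage. Assessed at ~two weeks; score reflects growth reduction compared with untreated plants.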
# [4] = system: rape; test: Postemergent control of plant species; assay type: in vivo, Brassica napus; settings: Brassica napus, post-emergence, 336 h, read-out: percent postemergent control
# In short: as §2
# [5] = system: soybean; test: Postemergent control of plant species; assay type: in vivo, Glycine max.; settings: Glycine max, post-emergence, 336 h, read-out: percent postemergent control
# In short: as §2
# [6] = system: sugar beet; test: Postemergent control of plant species; assay type: in vivo, Beta saccharifera; settings: Beta vulgaris, post-emergence, 336 h, read-out: percent postemergent control
# In short: as §2
# [7] = system: cocklebur; test: Postemergent control of plant species; assay type: in vivo, Xanthium spp.; settings: Xanthium strumarium, post-emergence, 336 h, read-out: percent postemergent control
# In short: as §2
# [8] = system: jimsonweed; test: Postemergent control of plant species; assay type: in vivo, Datura stramonium; settings: Datura stramonium, post-emergence, 336 h, read-out: percent postemergent control
# In short: as §2
# [9] = system: annual morning glory; test: Postemergent control of plant species; assay type: in vivo, Ipomoea spp.; settings: Ipomoea, post-emergence, 336 h, read-out: percent postemergent control
# In short: as §2
# [10] = system: pigweed; test: Postemergent control of plant species; assay type: in vivo, Amaranthus spp.; settings: Amaranthus retroflexus, post-emergence, 336 h, read-out: percent postemergent control
# In short: as §2
# [11] = system: velvetleaf; test: Postemergent control of plant species; assay type: in vivo, Abutilon theophrasti; settings: Abutilon theophrasti, post-emergence, 336 h, read-out: percent postemergent control
# In short: as §2
# [12] = system: corn; test: Postemergent control of plant species; assay type: in vivo, Zea mays; settings: Zea mays, post-emergence, 336 h, read-out: percent postemergent control
# In short: as §2
# [13] = system: rice; test: Postemergent control of plant species; assay type: in vivo, Oryza sativa; settings: Oryza sativa, post-emergence, 336 h, read-out: percent postemergent control
# In short: as §2
# [14] = system: sorghum; test: Postemergent control of plant species; assay type: in vivo, Sorghum vulgare; settings: Sorghum, post-emergence, 336 h, read-out: percent postemergent control
# In short: as §2
# [15] = system: wheat; test: Postemergent control of plant species; assay type: in vivo, Triticum aestivum; settings: Triticum aestivum, post-emergence, 336 h, read-out: percent postemergent control
# In short: as §2
# [16] = system: barnyardgrass; test: Postemergent control of plant species; assay type: in vivo, Echinochloa crusgalli; settings: Echinochloa crus-galli, post-emergence, 336 h, read-out: percent postemergent control
# In short: as §2
# [17] = system: crabgrass; test: Postemergent control of plant species; assay type: in vivo, Digitaria spp.; settings: Digitaria sanguinalis, post-emergence, 336 h, read-out: percent postemergent control
# In short: as §2
# [18] = system: yellow foxtail; test: Postemergent control of plant species; assay type: in vivo, Setaria lutescens; settings: Setaria, post-emergence, 336 h, read-out: percent postemergent control
# In short: as §2
# [19] = system: johnson grass; test: Postemergent control of plant species; assay type: in vivo, Sorghum halepense; settings: Sorghum halepense, post-emergence, 336 h, read-out: percent postemergent control
# In short: as §2
# [20] = system: wild oats; test: Postemergent control of plant species; assay type: in vivo, Avena fatua; settings: Avena fatua, post-emergence, 336 h, read-out: percent postemergent control
# In short: as §2
# [21] = system: yellow nutsedge; test: Postemergent control of plant species; assay type: in vivo, Cyperus esculentus; settings: Cyperus, post-emergence, 336 h, read-out: percent postemergent control
# In short: as §2
# [22] = system: nitrification of ammonium nitrogen; test: Suppression of nitrification of ammonium nitrogen in soil; settings: 27° C.
# In short: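 Value is % NH4-N remaining after a two-week, 27° C incubation of treated soil held at 1/3 bar tension moisture. Nitrate was measured with an ion-selective electrode after extraction with ammonium sulfate solution and 10 min shaking.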
compound,measurement,setting,value
Cc1ccccc1NS(=O)(=O)c1nc2ncc(Cl)cn2n1 [Compound 129],minimal effective concentration,[1],400 µg/mL
same,minimal effective concentration,[2],400 µg/mL
Cc1cccc(Cl)c1NS(=O)(=O)c1nc2ncc(Cl)cn2n1 [Compound 119],plant injury at 500 ppm,[3],0%
same,plant injury at 500 ppm,[4],100%
same,plant injury at 500 ppm,[5],0%
same,plant injury at 500 ppm,[6],50%
same,pest or weed control at 500 ppm,[7],70%
same,pest or weed control at 500 ppm,[8],90%
same,pest or weed control at 500 ppm,[9],30%
same,pest or weed control at 500 ppm,[10],0%
same,pest or weed control at 500 ppm,[11],70%
same,plant injury at 500 ppm,[12],30%
same,plant injury at 500 ppm,[13],0%
same,plant injury at 500 ppm,[14],0%
same,plant injury at 500 ppm,[15],0%
same,pest or weed control at 500 ppm,[16],0%
same,pest or weed control at 500 ppm,[17],0%
same,pest or weed control at 500 ppm,[18],0%
same,pest or weed control at 500 ppm,[19],80%
same,pest or weed control at 500 ppm,[20],0%
same,pest or weed control at 500 ppm,[21],40%
same,% NH4-N Remaining After 2 Weeks Incubation,[22]; 0.06 ppm,23%
same,% NH4-N Remaining After 2 Weeks Incubation,[22]; 0.25 ppm,33%
same,% NH4-N Remaining After 2 Weeks Incubation,[22]; 1 ppm,69%
same,% NH4-N Remaining After 2 Weeks Incubation,[22]; 4 ppm,88%
same,observed effect (postemergence),[1]; 400 ppm,stunting
same,minimal effective concentration,[1],400 µg/mL
